Reference: patent EP1714646A1, “Pharmaceutical composition containing bakuchiol for treating osteoporosis in women” (Sinphar Pharmaceutical Co., Ltd., priority 2005, dated 2006)

Legend:
[1] = system: osteoporosis caused by estrogen deficiency; test: Ovariectomized rat osteoporosis model: bone histomorphometry and apparent bone density; type: in vivo, female Wistar rats
Description: The purpose of this example is to show the potency of bakuchiol in treating osteoporosis, wherein ovary of a female rat is removed to stimulate osteoporosis caused by estrogen deficiency.
The female Wistar rats of 16 weeks old (unless specified in the other experiment description) were obtained from the stock reared by the Animal breeding center, National Scientific Council in Taipei. These rats were grouped by weights matched in order to distribute the physiological response variation from rats evenly into each group. These rats were grouping as follows: • Baseline group fed with no drug added food (n=8) • Sham operation group fed with no drug added food (Sham) (n=10) • Ovariectomy operation group fed with no drug added food (OVX) (n=8) • Ovariectomy operation group fed with Drug A (5 mg/kg) added food (OVX+A) (n=9) • Ovariectomy operation group fed with Drug B (15 mg/kg) added food (OVX+B) (n=9)
Ovariectomy (removal of ovaries) operation: Ovariectomy was induced using a protocol similar to that described by Wronski et al (Wronski et al, Endocrinology, 123 (2), 681-686 ([…]))
During the experiments, the rats were housed in hanging grid cages in groups of two at 21°C with a 12 hours dark cycle. Food (Rat-mouse diet III, adequate in 1 % of calcium content and 1.2 % of phosphate content, Purina, USA) was administered by paired feeding between the experimental and control groups. Pair-feeding was carried out by calculating the average amount of food intake in the Sham group. So give the same amount of food to the OVX , OVX+A (5 mg/kg), OVX+B (15 mg/kg) group animals the following day. These animals were fed with a period of two months except for the baseline group which were killed on the very day of doing ovariectomy or sham operation. Rats of OVX+A and OVX+B groups were fed with the usual food chuck but added certain amount of compound A and B in it respectively. Water was given ad libitum to all rats.
The test drug was weighted according to dose of 5 mg/kg and 15 mg/kg, and added into the ususal food chuck powder and mixed with 10% starch paste. After fully mixed, these chuck powder were made into mass manually and dried by air flow oven. The food with added drug to rats was performed by single blind method.
These labeling and bone histomorphometry assessment were done based on standard procedure in bone research (Lin et al, Calcif. Tissue Int., 67, 373-377 (2000)). […] Seven µm thick unstained sections were prepared for fluorescent microscopy and assessed with program Osteomeasure (3.0 version, Atlanta, USA). […]
The whole tibia and femur were stripped off attached muscles and ligaments after sacrifice. […] The weight of bone measured in the air was marked as W-air. […] The apparent bone density was calculated as [W-air/(W-air minus W-water)] […]

MDA-MB231 = test: Cytotoxicity assay (CCK-8), MDA-MB231; type: cell-based, human; conditions: MDA-MB231 (estrogen receptor negative), 48 hours incubation
Description: (§1) Materials: DMEM (medium), RPMI (medium), L-glutamine, penicillin, streptomycin and FBS (fetal bovine serum) were obtained from Gibco (NY, USA). Culture plasticware was purchased from Coming (MA, USA). […] All other chemicals used were of reagent grade and were purchased from Sigma or E. Merck (Germany).
(§2) Cell lines and cell cultures: The human breast cancer cell lines T47D and MDA-MB231 were obtained from American Type Culture Collection (ATCC). Of both cancer cells, T47D is estrogen receptor positive, and MDA-MB231 is estrogen receptor negative. Cells were cultured at 37°C in RPMI medium containing 10% charcoal-dextran stripped fetal bovine serum for T47D cells and in DMEM medium containing 10% charcoal-dextran stripped fetal bovine serum for MDA-MB231 cells with 5% CO2. The cell proliferation was determined by counting the viable cells with trypan blue exclusion.
(§3) Cytotoxicity assay: Dispense 198 µl of cell suspension (20,000 cells for T47D per well and 10,000 cell for MDA-MB231 per well) in a 96-well plate and pre-incubate the plate for 24 hours in an incubator at 37°C with humidified 5% CO2. […] After plate was incubated for 48 hours in the incubator, media were aspirated of and new media (100 µl) were added and incubated for more 1 hour. […] Measure the absorbance at 450 nm using a ELISA reader. […]

T47D = test: Cytotoxicity assay (CCK-8), T47D; type: cell-based, human; conditions: T47D (estrogen receptor positive), 48 hours incubation
Description: as §1, §2, §3

C=C[C@@](C)(/C=C/c1ccc(O)cc1)CCC=C(C)C [Bakuchiol, bakuchiol] was tested, and the “bone volume of proximal tibia” value ([1]; OVX+A (5 mg/kg) and OVX+B (15 mg/kg) in food, two months, vs OVX group, p < 0.001, Figure 1) was “increase”, the “erosion surface (ES/BS,%) of proximal tibia” value ([1]; OVX+A (5 mg/kg) and OVX+B (15 mg/kg) in food, two months, vs OVX group, p < 0.001, Figure 3) was “inhibition of bone erosion” and the “bone apparent density of tibia” value ([1]; OVX+A (5 mg/kg) and OVX+B (15 mg/kg) in food, two months, vs OVX group, p < 0.05, Figure 2) was “increase”. The “therapeutic effect on osteoporosis” value ([1]; ovariectomized female rat, low dose (5 mg/kg)) was “possess a therapeutic effect on osteoporosis by inhibiting the bone resorption”, the “50% inhibition of cell growth concentrations of test compounds (IC50)” value (MDA-MB231) was 0.62 μg/cc and the “50% inhibition of cell growth concentrations of test compounds (IC50)” value (T47D) was 5.00 μg/cc.
